What all share (assay): DTP human tumour cell line panel, 48 h
The test system of assay [1] is A549 NSCLC.
Assay [2] has as its system HCT-116 colon.
In assay [3] the test system is KM12 colon.
The subject of assay [4] is M14 melanoma.
In assay [5] the test system is MALME-3M melanoma.
Assay [6] has as its system NCI-H226 lung.
The subject of assay [7] is TK-10 renal.
For assay [8], the system named is UACC-257 melanoma.
For assay [9], the system named is T-47D breast.
In assay [10] the test system is SR leukemia.

Drawing on PubChem BioAssay (NCI), this text covers TGI and GI50 for 23 molecules.

The structures appear in SMILES notation.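 48-hour exposure; five concentrations; linearly interpolated endpoints. GI50 = concentration required for 50% inhibition of growth. TGI denotes the concentration required for complete inhibition of growth.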 Where a SMILES comes first, the peptide text is derived from it. Bridges are numbered along the chain shown (N, C = ends). [ ]: non-standard residue; d: D form. aThr = C[C@H](O)[C@H](N)C(=O)O

As to `O=C(CCCC(=O)Nc1ccc(Cl)cc1Cl)CC(=O)c1ccc2ccccc2c1`, the total growth inhibition concentration (TGI) in assay [1], in assay [2], in [3], in [4], in assay [5] and in assay [6] was > 100 µM each time. For the same molecule, the TGI in assay [7] and in [8] was > 100 µM each time.

Take `CC(C)C[C@@H]1NC(=O)[C@@H]2CCCN2C(=O)[C@@H]2CCCN2C(=O)[C@H](CC(C)C)NC(=O)[C@H](CO)NC(=O)[C@H](CCCCN)NC(=O)[C@H]([C@H](C)O)NC(=O)[C@@H]2CSSC[C@@H](NC1=O)C(=O)N[C@@H](Cc1ccccc1)C(=O)N1CCC[C@H]1C(=O)N[C@@H](CC(=O)O)C(=O)NCC(=O)N[C@@H](CCCN=C(N)N)C(=O)N2` (cyclo(C[aThr]KSLPPL[dC]FPDGR); disulfide 1-9): the GI50 in assay [1], in [2], in assay [3], in assay [5], in assay [6] and in assay [9] was > 50 µM throughout. Further, the GI50 in assay [7] and in assay [8] was > 50 µM in each case. Moreover, the TGI in [1], in assay [2], in assay [3], in assay [5], in assay [6] and in [9] was > 50 µM throughout. Besides, the TGI in assay [7] and in assay [8] was > 50 µM each time.

For `CC12OC(=O)C(C#N)C1(C)C1C(=O)CCCC12` (configuration not stated), the TGI in assay [1], in [2], in assay [3], in assay [4], in [5] and in assay [6] was > 100 µM each time. The TGI (usually the concentration giving total growth inhibition) in assay [7] is > 100 µM.

For the molecule `Cc1ccccc1C(CCCO)C(=O)O` (configuration not stated), the TGI in assay [1], in [2], in assay [3], in assay [4], in [5] and in [7] was > 100 µM throughout. For the same molecule, the TGI in assay [8] is > 100 µM.

As to `COc1ccccc1Oc1nccc(-c2c(-c3ccc(F)cc3)ncn2C2CCNCC2)n1`, the GI50 – broadly, the concentration that inhibits growth by half – in assay [1] is > 25 µM; in assay [2] it was 19.6 µM; in [3], > 25 µM; in assay [4], > 19.1 µM; in assay [5] it was > 25 µM; in [9], > 25 µM. In addition, the GI50 in assay [7] is > 25 µM. Moreover, the TGI in assay [1], in assay [2], in assay [3], in assay [4], in assay [5] and in assay [9] was > 25 µM in each case. The total growth inhibition concentration (TGI) in assay [7] is > 25 µM.

Consider `Nc1nc(=S)c2c(ncn2CCO)[nH]1`, for which the total growth inhibition concentration (TGI) in assay [1], in assay [2], in assay [3], in assay [4], in [5] and in assay [6] was > 100 µM each time. The concentration for total growth inhibition (TGI) in assay [7] and in assay [8] was > 100 µM in each case.

With `CN1CCN(c2c(F)cc(NC3=C(Cl)C(=O)c4ncccc4C3=O)cc2F)CC1`, the GI50 in [1] was 18 µM; in [2], 1.78 µM; in [3], 16.5 µM; in assay [4], 4.34 µM; in assay [5], 1.59 µM; in [6] it was 22.2 µM. In addition, the GI50 in assay [9] is 1.95 µM; in [7] it was 1.93 µM; in assay [8], 1.68 µM. Moreover, the total growth inhibition concentration (TGI) was found to be 35.4 µM in assay [1]; 3.35 µM in assay [2]; 33 µM in assay [3]; 15.3 µM in [4]; 2.97 µM in assay [5]; 55.9 µM in assay [6]. Moreover, the figures for the total growth inhibition concentration (TGI) in assay [9], in assay [7] and in [8] were 5.04 µM, 3.67 µM and 3.39 µM, respectively.

Consider `CC(=O)Nc1ccc(C2CC(c3ccc([N+](=O)[O-])cc3)=Nc3ccccc3S2=O)cc1` (configuration not stated), for which the TGI in assay [1] was > 100 µM; in assay [3], 35.1 µM; in [4], > 100 µM; in [6], 64.5 µM; in assay [7], 64.7 µM; in [8] it was 95.3 µM.

Regarding `CCCC(=O)CC(C)C(=O)C(=O)NC12CC3CC(CC(C3)C1)C2` (configuration not stated), the TGI in [1], in assay [3], in assay [4], in assay [5], in assay [6] and in assay [7] was > 100 µM in each case. Further, the TGI in assay [8] was > 100 µM.

In the case of `C[C@H](C(=O)O)C(=O)NC(=O)N(Cc1ccccc1)N=O`, the total growth inhibition concentration (TGI) in assay [1], in assay [2], in assay [3], in assay [4], in assay [5] and in assay [7] was > 100 µM each time. Further, in assay [8], the TGI was > 100 µM.

Turning to `COC(=O)C1=C(C(=O)OC)C2(c3ccccc3)OC1(c1ccccc1)c1cc3ccccc3cc12`, the TGI turned out to be 5.32 µM in assay [1]; 3.97 µM in assay [3]; 3.33 µM in assay [4]; 3.19 µM in [5]; 3.56 µM in assay [7].

Turning to `Cc1cccc(Cn2cc(CO)c3cnccc32)c1`, the GI50 in assay [1] was > 100 µM; in [2] it was 36.8 µM; in [3] it was 85.6 µM; in assay [4] it was > 100 µM; in assay [5] it was 64.6 µM; in assay [6], 32 µM. For the same molecule, the GI50 in [9] is 47.2 µM; in [7] it was 64.7 µM; in assay [8] it was 44.2 µM. Moreover, the concentration for total growth inhibition (TGI) in assay [1], in assay [2], in assay [3], in [4], in assay [5] and in assay [6] was > 100 µM throughout. The TGI in assay [9], in assay [7] and in [8] was > 100 µM in each case.

Regarding `COc1ccc(/C=C2\CCC/C(=C\c3ccc(OC)c(OC)c3)C2=O)cc1OC`, the GI50 in assay [1] is 1.79 µM; in [2], 1.14 µM; in assay [3], 1.02 µM; in assay [4], 1.9 µM; in [5] it was 8.51 µM; in [6], 21.9 µM. Also, the GI50 is 10.2 µM in assay [9], 1.4 µM in [7] and 4.65 µM in [8]. For the same molecule, the total growth inhibition concentration (TGI) in [1] was > 32.5 µM; in assay [2] it was 5.07 µM; in assay [3] it was > 32.5 µM; in assay [4] it was > 32.5 µM; in assay [5], > 32.5 µM; in assay [6] it was > 32.5 µM. The TGI is > 32.5 µM in assay [9], 7.33 µM in [7] and > 32.5 µM in assay [8].

As to `CC(=O)[CH-]C(=O)c1ccccc1.[C-]#[O+].[C-]#[O+].[Ir]`, the GI50 is > 100 µM in assay [1]; > 10 µM in assay [3]; > 100 µM in assay [5]; > 100 µM in assay [6]; > 100 µM in assay [7]; > 100 µM in [8]. In addition, the TGI in assay [1] is > 100 µM; in assay [3], > 10 µM; in assay [5] it was > 100 µM; in assay [6], > 100 µM; in assay [7], > 100 µM; in assay [8] it was > 100 µM.

Consider `CCc1ccc(Nc2cc(C)c3ccc(O)cc3n2)cc1`, for which the GI50 is 4.57 µM in assay [2]; 6.01 µM in assay [3]; 5.42 µM in assay [4]; 6.19 µM in assay [5]; 19.8 µM in [6]; 4.83 µM in assay [9]. Also, the GI50 in assay [7] was 14.1 µM. The total growth inhibition concentration (TGI) is 17.4 µM in [2]; 21.2 µM in [3]; 18.1 µM in assay [4]; 19 µM in assay [5]; 54.3 µM in assay [6]; 23.3 µM in assay [9]. The same molecule gave a total growth inhibition concentration (TGI) in assay [7] of 27.8 µM.

`COc1ccc(/C=C2\C(=O)N(NC(C)=O)c3ccccc32)cc1`: the TGI in assay [1], in assay [2], in assay [3], in [4], in assay [5] and in assay [6] was > 100 µM each time. In addition, the total growth inhibition concentration (TGI) in [7] and in assay [8] was > 100 µM in each case.

For the molecule `Cc1ccc(NC(=O)c2cc(S(=O)(=O)Nc3nnc(-c4ccccc4)c(-c4ccccc4)n3)c(SCc3ccccc3)cc2Cl)cc1`, the GI50 in assay [1] was 18.4 µM; in [2], 28.5 µM; in assay [3], 21.5 µM; in [4] it was 34.8 µM; in assay [6], 21.4 µM; in assay [10], 36 µM. The GI50 was 18.4 µM in assay [7] and 20.7 µM in assay [8]. Moreover, the TGI was 34.3 µM in [1]; 75.7 µM in [2]; 50.7 µM in [3]; > 100 µM in assay [4]; 56 µM in [6]; > 100 µM in assay [10]. The TGI in assay [7] was 40.6 µM; in assay [8], 41.7 µM.

`c1ccc(C(c2ccccc2)c2ccccn2)cc1`: the TGI in [1], in assay [2], in [3], in assay [4], in assay [5] and in [6] was > 100 µM throughout. The total growth inhibition concentration (TGI) in [7] and in assay [8] was > 100 µM throughout.

As for `COc1ccc(-c2nc3ccc(Cc4ccc5nc(-c6ccc(OC)cc6)[nH]c5c4)cc3[nH]2)cc1`, the GI50 in [1] was 0.0438 µM; in [2], 0.0339 µM; in [3] it was < 0.01 µM; in assay [4], < 0.01 µM; in [6] it was 0.475 µM; in [7] it was 1.1 µM. For the same molecule, the GI50 in assay [8] was 1.5 µM. Further, the TGI in assay [1] was found to be 0.237 µM; in assay [2], 0.14 µM; in assay [3], 0.163 µM; in assay [4] it was 0.111 µM; in [6], 2.56 µM; in [7] it was 2.32 µM. This molecule also had a TGI in assay [8] of 3.31 µM.

`O=C(c1ccccc1)[C@H]1Nc2ccc(Cl)cc2[C@H]2CCC[C@@H]12`: the TGI in assay [1] was > 100 µM; in [2], 41.5 µM; in assay [3] it was > 100 µM; in assay [4], 29.2 µM; in [5], 51.3 µM; in [6], 63.3 µM. The TGI in [10] and in assay [7] was > 100 µM throughout.

In the case of `CC(=O)Oc1c(C(=O)[O-])cc(C(C)C)cc1C(C)C.CC(=O)Oc1c(C(=O)[O-])cc(C(C)C)cc1C(C)C.CC(=O)Oc1c(C(=O)[O-])cc(C(C)C)cc1C(C)C.CC(=O)Oc1c(C(=O)[O-])cc(C(C)C)cc1C(C)C.[Cu+2].[Cu+2]`, the GI50 in [1] was 32.4 µM; in [2], 28.7 µM; in assay [3], 19.1 µM; in assay [4] it was 49.3 µM; in assay [6], 69.3 µM; in assay [9], 52 µM. Also, the GI50 in [7] is 33.7 µM; in [8] it was 18.2 µM. The TGI in assay [1], in [2], in assay [3], in assay [4], in [6] and in [9] was > 100 µM throughout. In addition, the concentration for total growth inhibition (TGI) was > 100 µM in [7] and 36.9 µM in assay [8].

`COc1cc(OC)c(OC)cc1/C=C/c1nc2ccccc2s1`: the total growth inhibition concentration (TGI) in assay [1], in assay [2], in assay [3], in assay [4], in [5] and in assay [6] was > 100 µM in each case. Also, the TGI in assay [9], in [7] and in assay [8] was > 100 µM in each case.

Consider `Cc1ccc(S(=O)(=O)NCCCCC(N)C(=O)O)cc1` (configuration not stated), for which the concentration for total growth inhibition (TGI) in assay [1], in [2], in assay [3], in assay [4], in assay [5] and in assay [6] was > 100 µM each time. Besides, the TGI in [9] and in assay [8] was > 100 µM throughout.
